Experimental data published in patent US20040082018A1, “Methods for using osteocalcin” (Athersys, Inc., priority 2002, published 2004).
No end group written: not given here.

How the values were obtained:
Format in all cases: cell-based
[1] = biological target: T1, CaR2 (Homo sapiens, UniProt Q5T6X5); assay: FLIPR assay of intracellular Ca^++ in HEK293 clone HEK-167B12-2.1 stably expressing CaR2; conditions: for FLIPR response (change of intracellular Ca^++ levels): initial ligand testing in the transfected cells; for effect on OC/Ca^++ activation of CaR2: OC and Ca^2+ pre-incubated with / in the presence of lead ion
T1 construct: expressed in transfected cells
T1 sequence (Q5T6X5 19-926): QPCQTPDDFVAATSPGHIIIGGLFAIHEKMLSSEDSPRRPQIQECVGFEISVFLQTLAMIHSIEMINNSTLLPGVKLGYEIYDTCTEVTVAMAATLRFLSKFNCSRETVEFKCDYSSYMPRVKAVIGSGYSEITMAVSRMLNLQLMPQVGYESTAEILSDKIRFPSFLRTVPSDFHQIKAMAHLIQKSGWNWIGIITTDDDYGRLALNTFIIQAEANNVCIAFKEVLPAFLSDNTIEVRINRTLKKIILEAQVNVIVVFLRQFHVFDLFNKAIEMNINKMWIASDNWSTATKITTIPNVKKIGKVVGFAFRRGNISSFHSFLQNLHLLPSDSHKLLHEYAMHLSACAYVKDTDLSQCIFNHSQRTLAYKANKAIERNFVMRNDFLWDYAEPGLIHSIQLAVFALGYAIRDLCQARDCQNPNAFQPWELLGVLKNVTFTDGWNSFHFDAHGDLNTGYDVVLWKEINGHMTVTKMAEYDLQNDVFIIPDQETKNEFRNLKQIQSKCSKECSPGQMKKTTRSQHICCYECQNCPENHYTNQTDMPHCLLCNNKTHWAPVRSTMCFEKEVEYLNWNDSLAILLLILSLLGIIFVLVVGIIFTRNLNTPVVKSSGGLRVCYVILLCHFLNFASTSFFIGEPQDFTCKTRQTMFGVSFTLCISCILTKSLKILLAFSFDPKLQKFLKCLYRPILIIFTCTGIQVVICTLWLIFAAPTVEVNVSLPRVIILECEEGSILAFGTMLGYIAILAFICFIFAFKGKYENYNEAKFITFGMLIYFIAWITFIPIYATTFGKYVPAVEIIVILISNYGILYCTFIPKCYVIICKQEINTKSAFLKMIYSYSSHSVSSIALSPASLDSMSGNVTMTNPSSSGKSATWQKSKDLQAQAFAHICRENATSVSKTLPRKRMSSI
Method: To facilitate pharmacological experimentation, CaR2 cDNA was cloned into the mammalian expression vector pcDNA 3.1 (+) Neo with or without a COOH-terminal FLAG epitope. The transgene was introduced into the HEK293 cell line and stable transfectants were identified. These clones were analyzed for CaR2 expression by qPCR and Western blotting to identify those clones that were suitable for ligand identification. The clone HEK-167B12-2.1 was chosen for further experimentation.
Based on the homology to the characterized goldfish odorant receptor 5.24, initial studies investigated the ability of 18 naturally occurring amino acids to trigger changes of intracellular Ca^++ levels in the transfected cells, as measured with a fluorescent imaging plate reader (FLIPR).
(§1) Intracellular Ca^++ was measured using a fluorometric imaging plate reader (FLIPR) [Molecular Devices]. Cells were seeded at a density of 1×10^5/well (96-well plate) or 1×10^4/well (384-well plate) in collagen coated plates and incubated overnight at 36.9° C. with 5% CO2. Medium was aspirated from the plates and replaced with equal volumes of a no wash calcium dye (Molecular Devices) and modified Hank's buffered saline solution [Ca^2+-free, Mg^2+-free] (140 mM NaCl, 5.4 mM KCl, 0.64 mM KH2PO4, 3 mM NaHCO3, 5.5 mM C6H12O6, 20 mM HEPES, 2.5 mM Caprylic acid (or 2.5 mM probenecid)). The plates were incubated for 1 hour at 36.9° C. with 5% CO2. FLIPR was used to measure changes in intracellular calcium as relative fluorescence upon activation by ligand.

[2] = biological target: T2, CaR (Homo sapiens, UniProt P41180); assay: Ca^++ response of HEK 293 cells that express the previously characterized CaR
T2 construct: expressed in transfected cells; host or cells: HEK 293
T2 sequence (P41180 20-1078): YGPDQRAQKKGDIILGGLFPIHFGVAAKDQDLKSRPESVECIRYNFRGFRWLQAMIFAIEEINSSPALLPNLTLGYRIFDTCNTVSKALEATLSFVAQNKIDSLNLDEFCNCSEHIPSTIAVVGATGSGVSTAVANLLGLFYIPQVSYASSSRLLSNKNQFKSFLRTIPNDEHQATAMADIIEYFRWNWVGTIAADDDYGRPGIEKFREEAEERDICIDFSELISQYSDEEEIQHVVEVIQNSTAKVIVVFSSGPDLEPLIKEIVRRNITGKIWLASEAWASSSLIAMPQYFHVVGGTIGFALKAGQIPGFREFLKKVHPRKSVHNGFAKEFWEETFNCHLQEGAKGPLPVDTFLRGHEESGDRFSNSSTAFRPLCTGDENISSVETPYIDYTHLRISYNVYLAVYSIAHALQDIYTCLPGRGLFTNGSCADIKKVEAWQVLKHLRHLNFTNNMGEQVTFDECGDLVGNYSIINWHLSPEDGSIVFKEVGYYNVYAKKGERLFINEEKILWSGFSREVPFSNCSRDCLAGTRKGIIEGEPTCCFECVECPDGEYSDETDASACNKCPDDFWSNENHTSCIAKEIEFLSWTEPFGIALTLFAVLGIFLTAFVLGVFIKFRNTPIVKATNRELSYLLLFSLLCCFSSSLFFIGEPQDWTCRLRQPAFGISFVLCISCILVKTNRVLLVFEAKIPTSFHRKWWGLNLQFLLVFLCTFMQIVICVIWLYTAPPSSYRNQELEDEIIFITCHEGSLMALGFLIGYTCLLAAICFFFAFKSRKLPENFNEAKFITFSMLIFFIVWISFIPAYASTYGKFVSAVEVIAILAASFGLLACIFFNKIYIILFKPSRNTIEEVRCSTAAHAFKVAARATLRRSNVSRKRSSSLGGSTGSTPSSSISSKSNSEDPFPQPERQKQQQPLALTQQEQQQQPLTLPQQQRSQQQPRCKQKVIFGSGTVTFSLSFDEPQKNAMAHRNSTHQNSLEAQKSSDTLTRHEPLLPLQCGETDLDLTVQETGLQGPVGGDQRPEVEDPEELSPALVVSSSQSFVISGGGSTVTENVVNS
Method: as §1
(§2) Also, the apical side of cells lining tubules in Henle's loop in kidney and in epithelial cells lining prostate ducts are microenvironments where CaR2 would encounter higher than standard extracellular Ca^++.

[3] = system: parental HEK293 cells; assay: FLIPR assay of intracellular Ca^++ in parental HEK293 cells that do not express CaR2
Method: as §1, §2

CN[C@H](CC(=O)O)C(=O)O [NMDA]
FLIPR response (change of intracellular Ca^++ levels) [1]: failed to elicit a positive FLIPR response

NCCCC(=O)O [GABA]
FLIPR response (change of intracellular Ca^++ levels) [1]: failed to elicit a positive FLIPR response

[Pb+2] [Pb^2+]
effect on OC/Ca^++ activation of CaR2 [1]: reversed | effect on OC/Ca^++ activation of CaR2 ([1]; listed as Pb^++): blocked

[Ca+2] [Ca^++, calcium]
activation of CaR2 ([1]; 10 mM Ca^++): modest activation | activation of CaR2 ([1]; 40 mM Ca^++): robustly activated | EC50 ([1]; Ca^++ as activating ligand, clone expressing CaR2): 85 mM | calcium level causing a marked increase in fluorescence signal, hence intracellular Ca^++ ([1]; clone expressing CaR2): > 20 mM | FLIPR response (change of intracellular Ca^++ levels) [1]: failed to elicit a positive FLIPR response | EC50 ([2]; transfected HEK 293 cells): 4.1 mM | increase in fluorescence signal by high calcium levels ([3]; parental cell line, >20 mM calcium): not observed

osteocalcin (YLYQWLGAPVPYPDPLEPRREVCELNPDCDELADHIGFQEAYRRFYGPV; ends and bridges not checked; cysteine pairing not given here; UniProt P02818 52-100, looked up)
OC activation of CaR2 ([1]; OC pre-incubated with 10 mM Ca^++): activates CaR2 when pre-incubated with 10 mM Ca^++ in a dose-dependent manner | effect of OC on CaR2 activation by calcium ([1]; in the presence of osteocalcin): activated at lower calcium levels and the activation by high mM calcium was potentiated | synergistic effect of Ca^++ and osteocalcin on CaR2, dependence on pre-incubation ([1]; pre-incubated versus both ligands added separately): only witnessed when calcium is pre-incubated with OC, but not when both ligands are added separately | synergistic effect of Ca^++ and osteocalcin ([2]; OC and Ca^++ added to HEK293 cells that express CaR): not observed | synergistic effect of Ca^++ and osteocalcin ([3]; OC and Ca^++ added to parental HEK293 cells): not observed
